Test results: PubChem BioAssay AID2060510 (Molecular Pharmacology Branch, DTP, NCI, 2025)
Each block holds one compound with its values, some of them ahead of it.

Test system: 439559-082-T-J2-PDC spheroids viability
Assay: Anticancer human tumor 439559-082-T-J2-PDC patient-derived colon adenocarcinoma cell line growth inhibition [GQUAD]
Conditions: for IC50: curve of first compound; for viability, T/C: stronger effect = lower value
In short: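 Multi-cell-type spheroids of tumor cells with HUVEC and mesenchymal stem cells, treated with drug combinations. Concentrations descend in half-log steps from near clinical Cmax, or from 10 microM where Cmax is unknown; viability read-out.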

[1] = second compound 0.0316 µM, first compound 0.0316 µM
[2] = second compound 0.0316 µM, first compound 0.316 µM
[3] = second compound 0.1 µM, first compound 0.0316 µM
[4] = second compound 0.1 µM, first compound 0.316 µM
[5] = second compound 0.316 µM, first compound 0.0316 µM
[6] = second compound 0.316 µM, first compound 0.316 µM
[7] = second compound 1 µM, first compound 0.0316 µM
[8] = second compound 1 µM, first compound 0.316 µM
[9] = second compound 3.16 µM, first compound 0.0316 µM
[10] = second compound 3.16 µM, first compound 0.316 µM
[11] = second compound 10 µM, first compound 0.0316 µM
[12] = second compound 10 µM, first compound 0.316 µM
[13] = second compound 0.0316 µM, first compound 0.1 µM
[14] = second compound 0.0316 µM, first compound 1 µM
[15] = second compound 0.0316 µM, first compound 3.16 µM
[16] = second compound 0.0316 µM, first compound 10 µM
[17] = second compound 0.1 µM, first compound 0.1 µM
[18] = second compound 0.1 µM, first compound 1 µM
[19] = second compound 0.1 µM, first compound 3.16 µM
[20] = second compound 0.1 µM, first compound 10 µM
[21] = second compound 0.316 µM, first compound 0.1 µM
[22] = second compound 0.316 µM, first compound 1 µM
[23] = second compound 0.316 µM, first compound 3.16 µM
[24] = second compound 0.316 µM, first compound 10 µM
[25] = second compound 1 µM, first compound 0.1 µM
[26] = second compound 1 µM, first compound 1 µM
[27] = second compound 1 µM, first compound 3.16 µM
[28] = second compound 1 µM, first compound 10 µM
[29] = second compound 3.16 µM, first compound 0.1 µM
[30] = second compound 3.16 µM, first compound 1 µM
[31] = second compound 3.16 µM, first compound 3.16 µM
[32] = second compound 3.16 µM, first compound 10 µM
[33] = second compound 10 µM, first compound 0.1 µM
[34] = second compound 10 µM, first compound 1 µM
[35] = second compound 10 µM, first compound 3.16 µM
[36] = second compound 10 µM, first compound 10 µM
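Further: spheroids exposed to the agents for 7 days before readout.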
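Wherever viability, T/C is given: percent of luminescence signal in DMSO vehicle wells taken as 100% viability.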

IC50 (second compound 0.0316 µM): > 0.316 µM | IC50 (second compound 0.1 µM): > 0.316 µM | IC50 (second compound 0.316 µM): > 0.316 µM | IC50 (second compound 1 µM): > 0.316 µM | IC50 (second compound 3.16 µM): > 0.316 µM | IC50 (second compound 10 µM): > 0.316 µM
SMILES: CC[C@@]1(O)C(=O)OCc2c1cc1n(c2=O)Cc2cc3c(CN(C)C)c(O)ccc3nc2-1 + Cc1cnc(CNC(=O)c2c(=O)c3ccc(N4CCCN(C)CC4)nc3n3c2sc2ccccc23)cn1
viability, T/C (second compound 0.0316 µM, first compound 0.000999 µM): 98.9% | viability, T/C (second compound 0.0316 µM, first compound 0.00316 µM): 89.6% | viability, T/C (second compound 0.0316 µM, first compound 0.00999 µM): 94.6% | viability, T/C [1]: 88.7% | viability, T/C (second compound 0.0316 µM, first compound 0.0999 µM): 82.4% | viability, T/C [2]: 81.9% | viability, T/C (second compound 0.1 µM, first compound 0.000999 µM): 91.7% | viability, T/C (second compound 0.1 µM, first compound 0.00316 µM): 81.5% | viability, T/C (second compound 0.1 µM, first compound 0.00999 µM): 96.5% | viability, T/C [3]: 95.8% | viability, T/C (second compound 0.1 µM, first compound 0.0999 µM): 83% | viability, T/C [4]: 81.8% | viability, T/C (second compound 0.316 µM, first compound 0.000999 µM): 79.7% | viability, T/C (second compound 0.316 µM, first compound 0.00316 µM): 85.2% | viability, T/C (second compound 0.316 µM, first compound 0.00999 µM): 79.5% | viability, T/C [5]: 75.8% | viability, T/C (second compound 0.316 µM, first compound 0.0999 µM): 83.4% | viability, T/C [6]: 69% | viability, T/C (second compound 1 µM, first compound 0.000999 µM): 73.5% | viability, T/C (second compound 1 µM, first compound 0.00316 µM): 70.3% | viability, T/C (second compound 1 µM, first compound 0.00999 µM): 74.5% | viability, T/C [7]: 79.1% | viability, T/C (second compound 1 µM, first compound 0.0999 µM): 80% | viability, T/C [8]: 67.4% | viability, T/C (second compound 3.16 µM, first compound 0.000999 µM): 71.5% | viability, T/C (second compound 3.16 µM, first compound 0.00316 µM): 72% | viability, T/C (second compound 3.16 µM, first compound 0.00999 µM): 68.6% | viability, T/C [9]: 71.4% | viability, T/C (second compound 3.16 µM, first compound 0.0999 µM): 72.8% | viability, T/C [10]: 66.9% | viability, T/C (second compound 10 µM, first compound 0.000999 µM): 64.3% | viability, T/C (second compound 10 µM, first compound 0.00316 µM): 71.8% | viability, T/C (second compound 10 µM, first compound 0.00999 µM): 66.6% | viability, T/C [11]: 70.7% | viability, T/C (second compound 10 µM, first compound 0.0999 µM): 66.4% | viability, T/C [12]: 61.1%

IC50 (second compound 0.0316 µM): > 10 µM | IC50 (second compound 0.1 µM): > 10 µM | IC50 (second compound 0.316 µM): > 10 µM | IC50 (second compound 1 µM): 6.35 µM | IC50 (second compound 3.16 µM): 4.19 µM | IC50 (second compound 10 µM): 9.8 µM
SMILES: COc1ccc([C@@H](O)c2cc(-c3ncnc4cc(N5CCOCC5)ccc34)c(F)cc2Cl)nn1 + Cc1cnc(CNC(=O)c2c(=O)c3ccc(N4CCCN(C)CC4)nc3n3c2sc2ccccc23)cn1
viability, T/C [1]: 99.2% | viability, T/C [13]: 95.8% | viability, T/C [2]: 93.6% | viability, T/C [14]: 89.9% | viability, T/C [15]: 75.8% | viability, T/C [16]: 59.8% | viability, T/C [3]: 91.4% | viability, T/C [17]: 84% | viability, T/C [4]: 87.3% | viability, T/C [18]: 71.2% | viability, T/C [19]: 70.4% | viability, T/C [20]: 59% | viability, T/C [5]: 89.4% | viability, T/C [21]: 79.1% | viability, T/C [6]: 75.4% | viability, T/C [22]: 68.9% | viability, T/C [23]: 66.6% | viability, T/C [24]: 50.3% | viability, T/C [7]: 80.1% | viability, T/C [25]: 66.6% | viability, T/C [8]: 74.4% | viability, T/C [26]: 64.8% | viability, T/C [27]: 63.1% | viability, T/C [28]: 42.7% | viability, T/C [9]: 72% | viability, T/C [29]: 62.7% | viability, T/C [10]: 61.8% | viability, T/C [30]: 59.3% | viability, T/C [31]: 53.5% | viability, T/C [32]: 43.2% | viability, T/C [11]: 56.9% | viability, T/C [33]: 65.4% | viability, T/C [12]: 66.3% | viability, T/C [34]: 52.3% | viability, T/C [35]: 62.1% | viability, T/C [36]: 41%

IC50 (second compound 0.0316 µM): 4.05 µM | IC50 (second compound 0.1 µM): 5.35 µM | IC50 (second compound 0.316 µM): 7.15 µM | IC50 (second compound 1 µM): 6.8 µM | IC50 (second compound 3.16 µM): 4.51 µM | IC50 (second compound 10 µM): 3.83 µM
SMILES: COc1cccc2c1C(=O)c1c(O)c3c(c(O)c1C2=O)CC(O)(C(=O)CO)CC3OC1CC(N)C(O)C(C)O1 (stereo unspecified) + Cc1cnc(CNC(=O)c2c(=O)c3ccc(N4CCCN(C)CC4)nc3n3c2sc2ccccc23)cn1
viability, T/C [1]: 99% | viability, T/C [13]: 95.1% | viability, T/C [2]: 87.3% | viability, T/C [14]: 77.6% | viability, T/C [15]: 48.9% | viability, T/C [16]: 45.3% | viability, T/C [3]: 101% | viability, T/C [17]: 96.7% | viability, T/C [4]: 89.6% | viability, T/C [18]: 70.3% | viability, T/C [19]: 54.3% | viability, T/C [20]: 45.3% | viability, T/C [5]: 79.9% | viability, T/C [21]: 73% | viability, T/C [6]: 69.6% | viability, T/C [22]: 79.3% | viability, T/C [23]: 57.2% | viability, T/C [24]: 45.9% | viability, T/C [7]: 70% | viability, T/C [25]: 73.3% | viability, T/C [8]: 69.7% | viability, T/C [26]: 63.6% | viability, T/C [27]: 61.6% | viability, T/C [28]: 44.7% | viability, T/C [9]: 71% | viability, T/C [29]: 67.2% | viability, T/C [10]: 65% | viability, T/C [30]: 60.3% | viability, T/C [31]: 55.3% | viability, T/C [32]: 41.1% | viability, T/C [11]: 63.3% | viability, T/C [33]: 67.7% | viability, T/C [12]: 63.1% | viability, T/C [34]: 54.2% | viability, T/C [35]: 51% | viability, T/C [36]: 44.2%
